Structures are written as SMILES. Structures can show the parent of a compound that is named as a salt. Where two headings read alike, the source gives them in different places.

These results are taken from US7041683B2 (Wyeth, priority 2001, dated 2006).

For one series, the target named is T1, human 5-HT1A receptors (Homo sapiens, UniProt P08908).
T1 construct: expressed in transfected cells; host or cells: CHO cells
T1 sequence (P08908 1-422): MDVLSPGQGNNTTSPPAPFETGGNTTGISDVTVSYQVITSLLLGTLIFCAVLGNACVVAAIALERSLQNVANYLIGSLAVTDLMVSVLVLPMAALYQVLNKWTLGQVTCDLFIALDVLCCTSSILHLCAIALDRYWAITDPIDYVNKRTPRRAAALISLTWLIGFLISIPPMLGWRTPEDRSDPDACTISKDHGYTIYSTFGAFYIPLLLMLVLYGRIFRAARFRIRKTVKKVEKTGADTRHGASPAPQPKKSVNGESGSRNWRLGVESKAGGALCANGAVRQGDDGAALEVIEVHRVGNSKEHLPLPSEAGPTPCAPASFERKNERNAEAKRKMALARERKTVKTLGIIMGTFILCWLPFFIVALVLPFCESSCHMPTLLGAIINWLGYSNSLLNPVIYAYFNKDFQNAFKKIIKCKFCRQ
The experiment in a line: [3H] 8-OHDPAT displacement from 5-HT1A receptor in stably transfected CHO cells. The series is classed as binding. From the text: High affinity for the serotonin 5-HT1A receptor was established by testing the claimed compound's ability to displace [^3H] 8-OHDPAT (dipropylaminotetralin) from the 5-HT1A serotonin receptor following a modification of the procedure of Hall et al., J. Neurochem. 44, 1685 (1985) which utilizes CHO cells stably transfected with human 5-HT1A receptors.

In series [1] the target is T2, cloned human 5-HT1A receptors (Homo sapiens, UniProt P08908).
T2 construct: expressed in transfected cells
T2 sequence (P08908 1-422): T1 sequence (P08908 1-422)
The experiment in a line: 35S-GTPγS binding assay, antagonist activity at 5-HT1A receptors. The series is classed as biochemical. Also on record: 5-HT1A Function Imax (maximum inhibitory effect): unit not given here. As to the method:
Antagonist activity at 5-HT1A receptors was established by using a ^35S-GTPγS binding assay similar to that used by Lazareno and Birdsall (Br. J. Pharmacol. 109: 1120, 1993), in which the test compound's ability to affect the binding of ^35S-GTPγS to membranes containing cloned human 5-HT1A receptors was determined. Agonists produce an increase in binding whereas antagonists produce no increase but rather reverse the effects of the standard agonist 8-OHDPAT. The test compound's maximum inhibitory effect is represented as the Imax, while its potency is defined by the IC50.
For orientation: GTPγS resists hydrolysis and so accumulates on activated G proteins.

Another series concerns the target T3, serotonin transporter (Rattus norvegicus, UniProt P31652).
T3 construct: displace ^3H-paroxetine from male rat frontal cortical membranes; from tissue; host or cells: male rat frontal cortex membranes
The series is described as follows: 3H-paroxetine displacement from male rat frontal cortical membranes (serotonin transporter affinity). The series is classed as binding.

[2] abbreviates: 35S-GTPγS binding, reversal of the effects of the standard agonist 8-OHDPAT.
The mark [3] stands for this setting: 35S-GTPγS binding, reversal of the effects of the standard agonist 8-OHDPAT, read-out: 5-HT1A Function IC50.

T3 sequence (P31652 whole entry): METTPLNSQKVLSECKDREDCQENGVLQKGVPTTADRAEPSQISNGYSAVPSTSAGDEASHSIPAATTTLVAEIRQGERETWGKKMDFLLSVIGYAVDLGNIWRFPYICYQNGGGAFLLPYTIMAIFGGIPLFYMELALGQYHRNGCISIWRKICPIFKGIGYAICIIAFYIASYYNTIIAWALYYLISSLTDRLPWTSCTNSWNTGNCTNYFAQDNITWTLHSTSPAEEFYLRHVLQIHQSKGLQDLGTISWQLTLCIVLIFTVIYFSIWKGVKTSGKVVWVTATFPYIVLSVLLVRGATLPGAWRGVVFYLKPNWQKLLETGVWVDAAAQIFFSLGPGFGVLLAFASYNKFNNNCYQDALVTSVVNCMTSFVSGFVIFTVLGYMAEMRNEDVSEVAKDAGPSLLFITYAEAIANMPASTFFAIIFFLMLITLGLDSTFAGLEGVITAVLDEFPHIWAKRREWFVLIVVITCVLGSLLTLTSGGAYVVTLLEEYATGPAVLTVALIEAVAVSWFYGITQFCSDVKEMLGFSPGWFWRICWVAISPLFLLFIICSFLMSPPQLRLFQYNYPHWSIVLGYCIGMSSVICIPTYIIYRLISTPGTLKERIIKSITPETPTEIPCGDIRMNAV

What is called melting point is the temperature, or range, at which the solid turns liquid. Turning to `COc1cccc2c1OC(CN1CC=C(c3c[nH]c4ccc(C#N)cc34)CC1)CO2` (centres unmarked) (as salt: hydrochloride) (hydrate or solvate) [Example 7, 3-[1-(8-Methoxy-2,3-dihydro-benzo[1,4]dioxin-2-ylmethyl)-1,2,3,6-tetrahydro-pyridin-4-yl]-1H-indole-5-carbonitrile], the melting point is 235 to 238 °C.

Consider `COc1ccc2[nH]cc(C3=CCN(CC4COc5ccccc5O4)CC3)c2c1` (centres unmarked) (as salt: oxalate) [Example 1, 5-Methoxy-3-[4-[1,2,3,6-tetrahydro-1-[2-(2,3-dihydro[1,4]benzodioxinyl)]methyl]pyridinyl]indole], for which the melting point is 120 °C (dec.).

Consider `Fc1ccc2[nH]cc(C3=CCN(CC4COc5ccccc5O4)CC3)c2c1` (centres unmarked) (as salt: oxalate) [Example 2, 5-Fluoro-3-[4-[1,2,3,6-tetrahydro-1-[2-(2,3-dihydro[1,4]benzodioxinyl)]methyl]pyridinyl]indole], for which the melting point is 145 °C (dec.).

`COc1cccc2c1O[C@@H](CN1CC=C(c3c[nH]c4ccc(F)cc34)CC1)CO2` (as salt: oxalate) [Example 14, 5-Fluoro-3-[1-(8-methoxy-2,3-dihydro-benzo[1,4]dioxin-2-ylmethyl)-1,2,3,6-tetrahydro-pyradin-4-yl]-1H-indole]: the melting point was in the range of 154 to 156 °C.

Consider `COc1cccc2c1OC(CN1CC=C(c3c[nH]c4ccccc34)CC1)CO2` (centres unmarked) (hydrate or solvate) [Example 5, 3-[1-(8-Methoxy-2,3-dihydro-benzo[1,4]dioxin-2-ylmethyl)-1,2,3,6-tetrahydro-pyridin-4-yl]-1H-indole], for which the melting point lay within 203 to 205 °C.

The compound `Nc1ccc2c(c1)OCC(CN1CC=C(c3c[nH]c4ccccc34)CC1)O2` (single isomer, unassigned) [Example 3, 3-[4-(1H-Indol-3-yl)-3,6-dihydro-2H-pyridin-1-ylmethyl]-2,3-dihydro-benzo[1,4]dioxin-7-ylamine] yielded a melting point of 204 to 206 °C.

As usually defined, the Ki is a measure of affinity in units of concentration, obtained from inhibition or displacement. Broadly, the IC50 is the concentration needed to halve the response being measured. As for `Nc1ccc2c(c1)O[C@@H](CN1CC=C(c3c[nH]c4ccccc34)CC1)CO2` (single isomer, unassigned) [Example 3], the results for the Ki on human 5-HT1A receptors and on serotonin transporter were 31 nM and 1.16 nM, respectively. Moreover, the IC50 in series [1] is 232 nM. Further, in series [1] (setting [2]), the “5-HT1A Function Imax (maximum inhibitory effect)” value is “(96.0)”.

For the compound `COc1ccc2[nH]cc(C3=CCN(CC4COc5ccccc5O4)CC3)c2c1` (centres unmarked) [Example 1, 5-Methoxy-3-[4-[1,2,3,6-tetrahydro-1-[2-(2,3-dihydro[1,4]benzodioxinyl)]methyl]pyridinyl]indole], on human 5-HT1A receptors, the affinity, expressed as Ki, was 27.2 nM.

On to `Fc1ccc2[nH]cc(C3=CCN(CC4COc5ccccc5O4)CC3)c2c1` (centres unmarked) [Example 2, 5-Fluoro-3-[4-[1,2,3,6-tetrahydro-1-[2-(2,3-dihydro[1,4]benzodioxinyl)]methyl]pyridinyl]indole], for which the values for the Ki at human 5-HT1A receptors and on serotonin transporter were 68.3 nM and 16 nM, respectively.

Turning to `Nc1ccc2c(c1)OCC(CN1CC=C(c3c[nH]c4ccccc34)CC1)O2` (centres unmarked) [Example 4, 2-[4-(1H-Indol-3-yl)-3,6-dihydro-2H-pyridin-1-ylmethyl]-2,3-dihydro-benzo[1,4]dioxin-6-ylamine], the melting point lay within 199 to 200 °C. On human 5-HT1A receptors (displacement of [3H] 8-OHDPAT, CHO cells stably transfected with human 5-HT1A receptors, read-out: 5-HT1A Receptor Affinity KI), the Ki is 132 nM. Also, the “5-HT1A Function Imax (maximum inhibitory effect)” value in series [1] (setting [2]) is “(90.0)”. Also, in series [1] (setting [3]), the IC50 was found to be 240 nM. Further, the Ki on serotonin transporter came out at 2.03 nM.

Turning to `COc1cccc2c1OC(CN1CC=C(c3c[nH]c4ccccc34)CC1)CO2` (centres unmarked) [Example 5, 3-[1-(8-Methoxy-2,3-dihydro-benzo[1,4]dioxin-2-ylmethyl)-1,2,3,6-tetrahydro-pyridin-4-yl]-1H-indole], the inhibition constant Ki at human 5-HT1A receptors was determined as 2.85 nM; on serotonin transporter it was 0.17 nM. Moreover, the “5-HT1A Function Imax (maximum inhibitory effect)” value in series [1] (setting [2]) is reported as “(89.3)”. Besides, in series [1] (setting [3]), the IC50 turned out to be 57.3 nM.

On to `Nc1ccc2c(c1)OCC(CN1CC=C(c3c[nH]c4ccc(F)cc34)CC1)O2` (centres unmarked) [Example 6, 2-[4-(5-Fluoro-1H-indol-3-yl)-3,6-dihydro-2H-pyridin-1-ylmethyl]-2,3-dihydro-benzo[1,4]dioxin-6-ylamine], for which the melting point lay within 172 to 174 °C. At human 5-HT1A receptors, the Ki worked out at 46.7 nM. The “5-HT1A Function Imax (maximum inhibitory effect)” value in series [1] (setting [2]) was “(96.7)”. Besides, the IC50 in series [1] (setting [3]) came out at 411 nM. For the same compound, the Ki at serotonin transporter was 0.34 nM.

Consider `COc1cccc2c1OC(CN1CC=C(c3c[nH]c4ccc(C#N)cc34)CC1)CO2` (centres unmarked) [Example 7, 3-[1-(8-Methoxy-2,3-dihydro-benzo[1,4]dioxin-2-ylmethyl)-1,2,3,6-tetrahydro-pyridin-4-yl]-1H-indole-5-carbonitrile], for which the Ki at human 5-HT1A receptors is 7.95 nM; on serotonin transporter, 1.04 nM. Moreover, the “5-HT1A Function Imax (maximum inhibitory effect)” value in series [1] (setting [2]) is given as “(100)”. Besides, in series [1] (setting [3]), the half-maximal inhibitory concentration (IC50) was 82.5 nM.

`COc1cccc2c1O[C@@H](CN1CC=C(c3c[nH]c4ncccc34)CC1)CO2` [Example 8, 3-[1-(8-Methoxy-2,3-dihydro-benzo[1,4]dioxin-2-ylmethyl)-1,2,3,6-tetrahydro-pyridin-4-yl]-1H-pyrrole[2,3-b]pyridine] returned a melting point of 207 to 210 °C. Also, the affinity on human 5-HT1A receptors, expressed as Ki, was 4.3 nM. In addition, the “5-HT1A Function Imax (maximum inhibitory effect)” value in series [1] (setting [2]) is reported as “(94.0)”. The half-inhibitory concentration (IC50) in series [1] (setting [3]) came to 26 nM. At serotonin transporter, the inhibition constant Ki was found to be 39 nM.

`COc1cccc2c1OC(CN1CC=C(c3c[nH]c4cc(F)ccc34)CC1)CO2` (centres unmarked) [Example 9, 6-Fluoro-3-[1-(8-methoxy-2,3-dihydro-1,4-benzodioxin-2-ylmethyl)-1,2,3,6-tetrahydro-pyridin-4-yl]-1H-indole] gave a melting point of 184 to 185 °C. The same compound showed a Ki on human 5-HT1A receptors of 4.88 nM. The “5-HT1A Function Imax (maximum inhibitory effect)” value in series [1] (setting [2]) is listed as “(80.0)”. Moreover, the IC50 in series [1] (setting [3]) came out at 272 nM. On serotonin transporter, the affinity, expressed as Ki, was 0.6 nM.

As for `NC(=O)c1cccc2c1OC(CN1CC=C(c3c[nH]c4ccccc34)CC1)CO2` (centres unmarked) [Example 10, 3-[4-(1H-Indol-3-yl)-3,6-dihydro-2H-pyridin-1-ylmethyl]-2,3-dihydro-benzo[1,4]dioxine-5-carboxylic Acid Amide], the melting point lay in the range of 175 to 178 °C. On human 5-HT1A receptors, this compound showed a Ki of 64.6 nM. The “5-HT1A Function Imax (maximum inhibitory effect)” value in series [1] (setting [2]) is listed as “(61.0)”. The IC50 in series [1] (setting [3]) came out at 1280 nM. The same compound displayed an inhibitory constant (Ki) on serotonin transporter of 4.96 nM.

`NC(=O)c1cccc2c1OC(CN1CC=C(c3c[nH]c4ccc(F)cc34)CC1)CO2` (centres unmarked) [Example 11, 3-[4-(5-Fluoro-1H-indol-3-yl)-3,6-dihydro-2H-pyridin-1-ylmethyl]-2,3-dihydro-benzo[1,4]dioxine-5-carboxylic Acid Amide]: the melting point is 195 to 197 °C. This compound also showed a Ki on human 5-HT1A receptors of 70.6 nM. Besides, the “5-HT1A Function Imax (maximum inhibitory effect)” value in series [1] (setting [2]) is recorded as “(60.0)”. The IC50 in series [1] (setting [3]) amounted to 736 nM. Moreover, on serotonin transporter, the affinity corresponds to a Ki of 3.13 nM.

Compound `Fc1cccc2c1OC(CN1CC=C(c3c[nH]c4ccccc34)CC1)CO2` (centres unmarked) [Example 12, 3-(1-{[8-Fluoro-2,3-dihydro-1,4-benzodioxin-2-yl]methyl}-1,2,3,6-tetrahydropyridin-4-yl)-1H-indole] returned a melting point of 174 to 177 °C. The Ki on human 5-HT1A receptors worked out at 35.5 nM. In addition, the “5-HT1A Function Imax (maximum inhibitory effect)” value in series [1] (setting [2]) is listed as “(76.0)”. The IC50 in series [1] (setting [3]) worked out at 521 nM. On serotonin transporter, the Ki was determined as 49 nM.

`COc1ccc2c(c1)OC(CN1CC=C(c3c[nH]c4ccccc34)CC1)CO2` (centres unmarked) [Example 13, 3-(1-{[7-Methoxy-2,3-dihydro-1,4-benzodioxin-2-yl]methyl}-1,2,3,6-tetrahydropyridin-4-yl)-1H-indole] came in with a melting point of 166 to 168 °C. On human 5-HT1A receptors, the Ki was 17.3 nM. The “5-HT1A Function Imax (maximum inhibitory effect)” value in series [1] (setting [2]) is reported as “(100)”. The IC50 in series [1] (setting [3]) is 522 nM. The compound further showed an inhibition constant (Ki) at serotonin transporter of 40 nM.

`COc1cccc2c1O[C@@H](CN1CC=C(c3c[nH]c4ccc(F)cc34)CC1)CO2` [Example 14, 5-Fluoro-3-[1-(8-methoxy-2,3-dihydro-benzo[1,4]dioxin-2-ylmethyl)-1,2,3,6-tetrahydro-pyradin-4-yl]-1H-indole]: the Ki at human 5-HT1A receptors amounted to 8.57 nM; at serotonin transporter it was 1.79 nM. The “5-HT1A Function Imax (maximum inhibitory effect)” value in series [1] (setting [2]) is listed as “(100)”. Also, the IC50 in series [1] (setting [3]) came out at 70 nM.
